This note sets out measurements from PubChem BioAssay (NCI).

Test systems include HL-60(TB) leukemia; NCI-H460 lung; KM12 colon; NCI-H522 lung; OVCAR-8 ovarian; HOP-62 NSCLC; SK-OV-3 ovarian; MDA-MB-435; MCF7 breast.
What all share (experiment): inhibition of tumour cell growth, NCI panel, 48 h

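Assay format: 96-well plates, 48-hour exposure. Here, GI50 denotes the concentration required for 50% inhibition of growth. TGI: total growth inhibition.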

As for `C/C(CC(=O)Nc1cc(Cl)c(Cl)cc1Cl)=N\NS(=O)(=O)c1ccc(C)cc1`, the TGI with HL-60(TB) leukemia was 62.9 µM; in the assay with NCI-H460 lung, greater than 100 µM; with KM12 colon, greater than 100 µM; in the assay with NCI-H522 lung, 41.8 µM; with OVCAR-8 ovarian it was greater than 100 µM; in the assay on HOP-62 NSCLC, greater than 100 µM. Also, in the assay on SK-OV-3 ovarian, the TGI is greater than 100 µM.
With `O=C1/C(=C/c2ccc(Cl)cc2)COc2ccc(Br)cc21`, the TGI in the assay on HL-60(TB) leukemia, with NCI-H460 lung, in the assay with KM12 colon, in the assay with NCI-H522 lung, with OVCAR-8 ovarian and in the assay with HOP-62 NSCLC was greater than 100 µM throughout. Moreover, the TGI in the assay on SK-OV-3 ovarian is greater than 100 µM.
For `COc1ccccc1NC(=O)NS(=O)(=O)c1ccccc1`, the TGI in the assay on HL-60(TB) leukemia, in the assay on NCI-H460 lung, in the assay with KM12 colon, in the assay on NCI-H522 lung, with OVCAR-8 ovarian and in the assay with HOP-62 NSCLC was greater than 100 µM each time.
In the case of `CCC1C(=O)OCc2c1cc1n(c2=O)Cc2ccccc2-1` (stereo not given), the TGI with HL-60(TB) leukemia, in the assay on NCI-H460 lung, with KM12 colon, in the assay with OVCAR-8 ovarian and with HOP-62 NSCLC was greater than 100 µM throughout.
For the compound `Cn1cc(C2=C(c3cn(C)c4cc(Cl)ccc34)C(=O)NC2=O)c2ccccc21`, the GI50 in the assay with MDA-MB-435 was 0.0475 µM; with MCF7 breast it was 0.0972 µM; in the assay with HL-60(TB) leukemia, 0.0814 µM; with NCI-H460 lung it was 0.0961 µM; with KM12 colon, 0.106 µM; in the assay on NCI-H522 lung it was 0.0723 µM. In addition, the GI50 in the assay on OVCAR-8 ovarian was 0.117 µM; with HOP-62 NSCLC, 0.124 µM; with SK-OV-3 ovarian, 0.101 µM. Further, the TGI was 0.12 µM in the assay with MDA-MB-435; greater than 25 µM in the assay with MCF7 breast; 0.241 µM in the assay on HL-60(TB) leukemia; greater than 8.9 µM in the assay with NCI-H460 lung; 4.35 µM with KM12 colon; 0.345 µM in the assay on NCI-H522 lung. Moreover, the TGI in the assay with OVCAR-8 ovarian, with HOP-62 NSCLC and with SK-OV-3 ovarian was greater than 25 µM in each case.
For `Cc1cccc2c1C(=O)OC2(c1cccc2ccccc12)c1cccc2ccccc12`, the TGI in the assay with HL-60(TB) leukemia, in the assay on NCI-H460 lung, in the assay on KM12 colon, with NCI-H522 lung, with OVCAR-8 ovarian and with HOP-62 NSCLC was greater than 100 µM in each case. The TGI with SK-OV-3 ovarian was greater than 100 µM.
As to `CC(C(=O)C(C)O[Si](c1ccccc1)(c1ccccc1)C(C)(C)C)=P(c1ccccc1)(c1ccccc1)c1ccccc1` (stereo not given), the TGI in the assay on HL-60(TB) leukemia turned out to be 4.24 µM; with NCI-H460 lung it was 13.4 µM; with KM12 colon it was 12.9 µM; in the assay on OVCAR-8 ovarian it was 14.2 µM; with HOP-62 NSCLC, 9.23 µM; with SK-OV-3 ovarian, 6.81 µM.
On to `O=C1/C(=C/c2ccccc2)CN(C(=O)Oc2ccccc2)C/C1=C\c1ccccc1`, for which the TGI in the assay with HL-60(TB) leukemia was 5.78 µM; with NCI-H460 lung it was greater than 100 µM; in the assay on KM12 colon, greater than 100 µM; in the assay with NCI-H522 lung it was greater than 100 µM; in the assay on OVCAR-8 ovarian it was greater than 100 µM; in the assay with HOP-62 NSCLC, 39.7 µM.
With `CCCN(CCC)c1c([N+](=O)[O-])cc(C(N)=O)cc1[N+](=O)[O-]`, the TGI in the assay on HL-60(TB) leukemia was 87.4 µM; with NCI-H460 lung it was greater than 100 µM; in the assay on KM12 colon, greater than 100 µM; with NCI-H522 lung it was 67.3 µM; in the assay with OVCAR-8 ovarian, greater than 100 µM; in the assay with SK-OV-3 ovarian, greater than 100 µM.
Turning to `COc1cccc(C2N3CCCCC3[C@@H]3c4[nH]c5ccccc5c4CCN23)c1OC` (stereo not given in full), the TGI with HL-60(TB) leukemia stood at 31.7 µM; in the assay with NCI-H460 lung it was 36.3 µM; in the assay with OVCAR-8 ovarian it was 30.8 µM; with HOP-62 NSCLC, 29.4 µM; with SK-OV-3 ovarian, 31.4 µM.
Consider `CCC[CH2][Sn]1([CH2]CCC)[O]N=Cc2ccccc2[O]1`, for which the GI50 was 0.183 µM with HL-60(TB) leukemia; 1.44 µM with NCI-H460 lung; 1.47 µM in the assay on KM12 colon; 0.102 µM with NCI-H522 lung; 0.89 µM in the assay on OVCAR-8 ovarian; 1.62 µM in the assay on HOP-62 NSCLC. In the assay on SK-OV-3 ovarian, the GI50 was 2.96 µM. Also, the TGI with HL-60(TB) leukemia was 0.726 µM; in the assay on NCI-H460 lung, 2.76 µM; in the assay on KM12 colon it was 2.78 µM; with NCI-H522 lung, 0.229 µM; in the assay on OVCAR-8 ovarian it was 2.12 µM; in the assay on HOP-62 NSCLC it was 3.12 µM. This compound also yielded a TGI in the assay on SK-OV-3 ovarian of 6.15 µM.
Turning to `N#CC(N)(C(=O)C(=O)NCCCNC(=O)C(=O)C(N)(C#N)c1ccc(Cl)cc1)c1ccc(Cl)cc1` (stereo not given), the TGI in the assay with HL-60(TB) leukemia, in the assay with NCI-H460 lung, with KM12 colon, in the assay on NCI-H522 lung, in the assay on OVCAR-8 ovarian and with HOP-62 NSCLC was greater than 100 µM each time. Moreover, the TGI with SK-OV-3 ovarian is greater than 100 µM.
Take `CC(C)=CCCC1(C)C=Cc2c(ccc3c2[nH]c2cc(O)c(C)cc23)O1` (stereo not given): the GI50 is 9.48 µM with HL-60(TB) leukemia; 4.73 µM in the assay with NCI-H460 lung; 4.74 µM with KM12 colon; 3.87 µM with NCI-H522 lung; 4.74 µM with HOP-62 NSCLC. For the same compound, the TGI in the assay on HL-60(TB) leukemia was greater than 25 µM; with NCI-H460 lung it was 9.7 µM; with KM12 colon, 8.77 µM; in the assay on NCI-H522 lung, 7.2 µM; in the assay with OVCAR-8 ovarian it was 7.49 µM; with HOP-62 NSCLC, 8.71 µM. For the same compound, in the assay with SK-OV-3 ovarian, the TGI is greater than 2.5 µM.
Regarding `COc1ccc2nc(NC(=O)C(=O)C(C#N)c3ccc(CC#N)cc3)sc2c1` (stereo not given), the TGI with HL-60(TB) leukemia, in the assay on NCI-H460 lung, with KM12 colon, in the assay with NCI-H522 lung, with OVCAR-8 ovarian and in the assay with HOP-62 NSCLC was greater than 100 µM throughout. This compound gave a TGI with SK-OV-3 ovarian greater than 100 µM.
As for `CCc1cc2c(c3[nH]ccc13)[C@@H](C)C[C@H]2C`, the TGI was determined as 48.8 µM in the assay with HL-60(TB) leukemia; 29.4 µM in the assay on NCI-H460 lung; 36.5 µM in the assay on KM12 colon; 31.9 µM in the assay with NCI-H522 lung; 41.1 µM with OVCAR-8 ovarian; 54.9 µM in the assay with SK-OV-3 ovarian.
As to `Nc1ccc(C(=O)N/C(=C\c2ccc3c(c2)OCO3)c2nc3ccc4c(c3[nH]2)C(=O)c2ccccc2C4=O)cc1`, the TGI in the assay with NCI-H460 lung is greater than 100 µM; in the assay with KM12 colon, greater than 100 µM; in the assay with NCI-H522 lung, 71.9 µM; with OVCAR-8 ovarian it was greater than 100 µM; with HOP-62 NSCLC, greater than 100 µM; in the assay on SK-OV-3 ovarian it was 79.7 µM.
